Test results as given in patent US20060029546A1, “Materials and methods for identifying anti-schizophrenic agents” (deCODE Genetics, Inc., priority 2004, published 2006).

Key:
ErbB4 = ErbB4 tyrosine phosphorylation in HEK293 cells (Western blot); type: cell-based; conditions: for NRG1-induced ErbB4 tyrosine phosphorylation: cells expressing ErbB4 and Fyn, inhibitor 25 nM
Protocol: (§1) To determine whether NRG1-induced activation of ErbB4 leads to Fyn phosphorylation, NRG1 exposure of HEK293 cells stably expressing ErbB4 and Fyn-V5 were activated with 7.2 nM NRG1 (R&D Systems; Minneapolis, Minn.) for 10 minutes and lysed using RIPA buffer. […] There was no change in Fyn Tyr531 phosphorylation. […] Fyn is activated either by dephophorylation of Tyr531 with loss of the SH2 domain interaction, or through displacement of the SH2 domain by a second tyrosine phosphorylated binding partner allowing auto-phosphorylation on the Fyn activation loop residue Tyr420. Alternatively, Fyn can be phosphorylated on Tyr420 and activated directly by a second kinase. Thus, the NRG1-stimulated increase in Fyn Tyr420 phosphorylation may be through stimulation of Fyn auto-phosphorylation, through phosphorylation of Fyn by ErbB4, or through phosphorylation of Fyn by an ErbB4 activated tyrosine kinase other than Fyn.
Thus, NRG1-induced ErbB4 phosphorylation under conditions in which Fyn and related Src-family kinases were inhibited by PP2 (selective Src-family kinase inhibitor described above). […] This may result in the creation of additional SH2 domain docking sites, thus leading to further activation of Fyn as part of a positive feedback mechanism involving NRG1, ErbB4 and Src-family kinases.

Fyn [1] = experiment: Fyn phosphorylation in HEK293 cells stably expressing ErbB4 and Fyn-V5 (Western blot); type: cell-based
Protocol: as §1
These alternatives were distinguished by applying PP2 (25 nM; Calbiochem, San Diego, Calif.) a relatively selective Src-family kinase inhibitor, to inhibit Fyn while ErbB4 signaling was stimulated with NRG1. […] Fyn was phosphorylated at a low level on Tyr420 under basal conditions. […] After NRG1 stimulation, an increase in Fyn Tyr420 phosphorylation was seen, even under conditions in which PP2 was used to inhibit p59 Fyn autophosphorylation. […]

Fyn [2] = conditions: cited from earlier work
[3] = system: NMDA receptor subunit NR2B; experiment: NR2B Tyr1472 phosphorylation in mouse hippocampal lysates (Western blot); type: in vivo
Protocol: To further characterize components of the NRG1/ErbB4 signaling pathway a-ErbB4 co-immunoprecipitates from mouse brain hippocampus were analyzed. […] Hippocampus tissue was isolated by manual dissection and homogenized in DOC buffer (20 μM ZnCl2, 50 mM Tris pH 9.0, 1% DOC) (1 ml/50 mg of tissue) containing protease and phosphatase inhibitors as above. 25U Benzonase Nuclease per 1 ml of lysate were added to each sample during a 60 minute incubation at 4° C. For SDS-PAGE and Western blot, sample protein content was determined using a BCA Protein Assay Reagent Kit (Pierce, Rockford, Ill.), adjusted to a final concentration of 2 μg/μl total protein in 1×SDS-PAGE sample buffer, and then 20-25 μg of protein was loaded per gel lane. For immunoprecipitation, samples were adjusted to a final concentration of 2 μg/μl total protein in DOC buffer. […]
It was hypothesized that NRG1^+/− and ErbB4^+/− mutant mice might show altered regulation of NMDA receptor subunit NR2B Tyr1472 phosphorylation related to their abnormal behavioral phenotype. Hippocampal lysates were analyzed as described in Example 1. It was determined that Tyr1472 of NR2B was hypo-phosphorylated in hippocampal lysates from 9 month old NRG1^+/− or ErbB4^+/− mutant mice as compared to age and sex matched C57B1/6 control mice (FIG. 3). […]

NRG1+/− mutant mice = experiment: Open field test; type: in vivo, mouse; conditions: single exposure
Protocol: NRG1 hypomorphic mutant mice (NRG1^+/−) are heterozygotic mice that have a mutant NRG1 allele in which the NRG1 exon encoding the transmembrane domain is disrupted in the heterozygote. These mice develop normally and breed well. […] Treatment of the NRG1^+/−mice with a clozapine (1 mg/kg), an atypical antipsychotic drug commonly used to treat schizophrenia, for 25 minutes prior to testing reversed the behavioral abnormality. […] In addition, it is known that the NRG1^+/− had 16% fewer functional NMDA receptors overall as compared to litter-mate controls as determined by MK-801 (NMDA antagonist) binding studies on forebrain homogenates (Steffanson et al., Am. J. Hum. Genet. 72: 83-7, 2003). Therefore, these mice are relevant as an in vivo model for schizophrenia.
Behavioral abnormality of NRG1^+/− mutant mice observed in the open field test is reversible with clozapine at a dose of 1 mg/kg i.p. The activity level of wild-type litter mate controls is not affected by that dose of clozapine. Thus, clozapine is not simply sedating at 1 mg/kg i.p., but has a selective effect on the behavioral abnormality of NRG1^+/− mutant mice. Reversal of the behavioral abnormality occurred rapidly within 25 minutes of a single exposure to clozapine.

| Compound | NRG1-induced ErbB4 tyrosine phosphorylation (ErbB4) | Fyn phosphorylation (Fyn [1]; control compound) | effect on Fyn (Fyn [2]; control kinase inhibitor) | NRG1 induced tyrosine phosphorylation (ErbB4; HEK293 cells expressing only ErbB4) | ErbB4 basal phosphorylation (ErbB4; absence of NRG1) | basal Fyn Tyr420 phosphorylation (Fyn [1]; basal conditions, 24 hour preincubation, 25 nM) | IC50 (Fyn [2]; read-out: Fyn inhibition IC50) [nM] | increase of NR2B Tyr1472 phosphorylation ([3]; NRG1+/− mutant mice, 1 mg/kg i.p., 25 minutes after injection, normalized against total NR2B) | NR2B Tyr1472 phosphorylation ([3]; wild-type mice, same dose) | time to reversal of the behavioral abnormality (NRG1+/− mutant mice) [min] |
| --- | --- | --- | --- | --- | --- | --- | --- | --- | --- | --- |
| Nc1ncnc2c1cnn2-c1ccccc1 [PP3] | no effect | no effect | no effect on Fyn | – | – | – | – | – | – | – |
| CC(C)(C)n1nc(-c2ccc(Cl)cc2)c2c(N)ncnc21 [PP2] | greatly reduced | – | – | no effect | no effect | reduced | […] | – | – | – |
| CN1CCN(C2=Nc3cc(Cl)ccc3Nc3ccccc32)CC1 [clozapine] | – | – | – | – | – | – | – | 2.5-3 fold | no effect | ≤ 25 |
